# Where “and” joins values, the source holds several entries; their conditions need not be identical. Equal values may be shown once.
# Assays:
# healthy human subjects = experiment: Clinical single-dose escalation study, safety and tolerability
# [1] = human, in vivo, po
# [2] = Stability of dilute aqueous solution as a function of pH (absorbance at 303 nm); assay type: physicochemical
# [3] = Clinical single-dose escalation study, pharmacokinetics of oral gallium maltolate (serum and urine gallium); conditions: human; for FAe: cumulative urinary excretion as fraction of administered dose: 72h; for F (V=29.5 L): from V/F
# Solubility in water = assay type: physicochemical; conditions: 25 C; listed as GaM
# [4] = Dog bioavailability study (serum gallium); conditions: healthy young beagle dogs, intraduodenal or oral
# [5] = dog, in vivo, 1.5 mg/kg
# [6] = parameters: method as in earlier work; conditions: human cancer patients, single oral dose 800 mg (317 mg Ga); cited from earlier work
# [7] = Pharmacokinetics of single oral dose of gallium chloride in cancer patients (data of Collery et al.); assay type: in vivo, human; conditions: data of ref 12
# [8] = single oral dose 100 mg [15.7 mg Ga]
# [9] = single oral dose 200 mg [31.3 mg Ga]
# [10] = single oral dose 300 mg [47.0 mg Ga]
# [11] = single oral dose 500 mg [78.4 mg Ga]
structure (smiles),measurement,setting,value
"Cc1occc(=O)c1[O-].Cc1occc(=O)c1[O-].Cc1occc(=O)c1[O-].[Ga+3] [gallium maltolate, tris(3-hydroxy-2-methyl-4H-pyran-4-onato)gallium]","Change in renal function (serum creatinine clearance, serum urea, BUN clearance, urinary microglobulin, urinalysis)","healthy human subjects; healthy human subjects, oral",none of the subjects who took oral GaM showed any change in renal function
same,Serious treatment-related adverse events,"healthy human subjects; healthy human subjects, single oral doses 100-500 mg",no reports of serious treatment-related adverse events
same,Subjects reporting possible drug-related adverse events,"healthy human subjects; healthy human subjects, single oral doses 100-500 mg, mild headache (100 mg), moderate coughs (200 mg)",Three of the twelve subjects
same,Tolerability,"healthy human subjects; healthy human volunteers, single oral doses of 100, 200, 300 and 500 mg",very well tolerated
same,"F, range over doses (from V/F with V 29.5 L)",[1],0.25-0.40
same,Dissociation in dilute aqueous solution,"[2]; 2.5 x 10^-5 M, pH 5.5-8.0",little dissociation
same,Gallium maltolate complex undissociated,"[2]; dilute aqueous solution (2.5 x 10^-5 M), pH approximately 5.5 to 8",at least 98%
same,Dose dependence of absorption,"[3]; oral, dosage range 100-500 mg",dose proportional
same,"Urinary Ga excretion, of the administered dose","[3]; oral, over 72h",approximately 2%
same,Ae: cumulative urinary excretion of gallium in 72h,[3]; [8],0.35(0.14) mg
same,Lag time,[3]; [8],0.32(0.05) h
same,FAe: cumulative urinary excretion as fraction of administered dose,[3]; [8],0.022(0.001)
same,F (V=29.5 L),[3]; [8],0.28
same,Ae: cumulative urinary excretion of gallium in 72h,[3]; [9],0.66(0.28) mg
same,Lag time,[3]; [9],0.42(0.04) h
same,FAe: cumulative urinary excretion as fraction of administered dose,[3]; [9],0.021(0.001)
same,F (V=29.5 L),[3]; [9],0.35
same,Ae: cumulative urinary excretion of gallium in 72h,[3]; [10],1.11(0.08) mg
same,Lag time,[3]; [10],0.24(0.06) h
same,FAe: cumulative urinary excretion as fraction of administered dose,[3]; [10],0.023(0.000)
same,F (V=29.5 L),[3]; [10],0.40
same,Ae: cumulative urinary excretion of gallium in 72h,[3]; [11],1.37(0.52) mg
same,Lag time,[3]; [11],0.20(0.08) h
same,FAe: cumulative urinary excretion as fraction of administered dose,[3]; [11],0.018(0.001)
same,F (V=29.5 L),[3]; [11],0.25
same,Central compartment excretion half life,[3]; single oral doses 100-500 mg,17 to 21 h
same,Estimated oral gallium bioavailability,"[3]; single oral doses 100-500 mg, comparison with published i.v. gallium nitrate data",25-57%
same,Solubility in water,Solubility in water,10.7 ± 0.9 mg/mL and 24(2) mM
same,Absorption of Ga into blood plasma relative to intraduodenal Ga nitrate,[4],several times higher
"O=[N+]([O-])[O-].O=[N+]([O-])[O-].O=[N+]([O-])[O-].[Ga+3] [Ga nitrate, gallium nitrate]",Cmax,[5],0.31 (0.02) lg/mL
same,K01 half life,[5],0.8(0.2) h
same,Tmax,[5],3.1 (0.4) h
same,beta half life,[5],9.9(2.4) h
"[Cl][Ga]([Cl])[Cl] [GaCI3, gallium chloride]",Estimated V/F,[6],2862(297) L
same,Gallium bioavailability using the estimated value for V/F,"[7]; human cancer patients, single oral dose 800 mg (317 mg Ga)",approximately 0.010
same,Estimated oral bioavailability,"[7]; human, oral",≤ 2%

# Reference: PMC2365198, “Chemistry and Pharmacokinetics of Gallium Maltolate, a Compound With High Oral Gallium Bioavailability” (Metal-Based Drugs, 2000)
